Data taken from paper PMC5218480 (PLoS ONE, 2017).

Tested on: MV-4-11 cells
Experiment: Gene expression microarray analysis (Affymetrix PrimeView) and GSEA
Format: cell-based, human
Parameters: RFU PODN (11730768_x_at) / Fold change /veh PODN (11730768_x_at) / RFU LINC00158 (11744669_a_at) / Fold change /veh LINC00158 (11744669_a_at) / RFU DUSP10 (11751237_a_at) / Fold change /veh DUSP10 (11751237_a_at) / RFU ID3 (11757404_x_at) / Fold change /veh ID3 (11757404_x_at) / RFU PLEKHG5 (11737974_s_at) / Fold change /veh PLEKHG5 (11737974_s_at) / RFU LRRC4B (11730491_at) / Fold change /veh LRRC4B (11730491_at) / RFU GIMAP4 (11747438_a_at) / Fold change /veh GIMAP4 (11747438_a_at) / RFU KRT8 (11758183_x_at) / Fold change /veh KRT8 (11758183_x_at) / RFU CNN1 (11734310_a_at) / Fold change /veh CNN1 (11734310_a_at) / RFU VPS37D (11726825_at) / Fold change /veh VPS37D (11726825_at) / RFU C10orf10 (11716522_x_at) / Fold change /veh C10orf10 (11716522_x_at) / RFU KIR2DL2 /// KIR2DL4 /// KIR2DL5A /// KIR2DL5B /// KIR2DS1 /// KIR2DS2 /// KIR2DS3 /// KIR2DS4 /// KIR3DL3 /// KIR3DL3 /// KIR3DS1 (11738374_at) / Fold change /veh KIR2DL2 /// KIR2DL4 /// KIR2DL5A /// KIR2DL5B /// KIR2DS1 /// KIR2DS2 /// KIR2DS3 /// KIR2DS4 /// KIR3DL3 /// KIR3DL3 /// KIR3DS1 (11738374_at) / RFU C1QL1 (11718748_at) / Fold change /veh C1QL1 (11718748_at) / RFU TMPRSS4 (11747572_a_at) / Fold change /veh TMPRSS4 (11747572_a_at) / RFU HAMP (11756126_x_at) / Fold change /veh HAMP (11756126_x_at) / RFU RNFT2 (11725882_a_at) / Fold change /veh RNFT2 (11725882_a_at) / RFU NR4A2 (11747474_a_at) / Fold change /veh NR4A2 (11747474_a_at) / RFU ABCC12 (11746883_a_at) / Fold change /veh ABCC12 (11746883_a_at) / RFU TMEM136 (11760407_x_at) / Fold change /veh TMEM136 (11760407_x_at) / RFU CLDN22 /// WWC2 (11732394_at) / Fold change /veh CLDN22 /// WWC2 (11732394_at) / RFU HLA-DPB1 (11760878_x_at) / Fold change /veh HLA-DPB1 (11760878_x_at) / RFU SPINT1 (11716480_a_at) / Fold change /veh SPINT1 (11716480_a_at) / RFU GAP43 (11754022_s_at) / Fold change /veh GAP43 (11754022_s_at) / RFU A4GNT (11735810_at) / Fold change /veh A4GNT (11735810_at) / RFU PRB3 (11715151_x_at) / Fold change /veh PRB3 (11715151_x_at) / RFU TUBB4B (11761932_at) / Fold change /veh TUBB4B (11761932_at) / RFU CAPN14 (11732068_a_at) / Fold change /veh CAPN14 (11732068_a_at) / RFU TMCC2 (11721928_a_at) / Fold change /veh TMCC2 (11721928_a_at) / RFU IRGQ (11745062_a_at) / Fold change /veh IRGQ (11745062_a_at) / RFU FAM174B (11720279_a_at) / Fold change /veh FAM174B (11720279_a_at) / RFU TMPRSS4 (11748680_a_at) / Fold change /veh TMPRSS4 (11748680_a_at) / RFU FAM212B (11763350_a_at) / Fold change /veh FAM212B (11763350_a_at) / RFU PLEKHG5 (11743358_a_at) / Fold change /veh PLEKHG5 (11743358_a_at) / RFU ZSCAN30 (11745921_a_at) / Fold change /veh ZSCAN30 (11745921_a_at) / RFU CMKLR1 (11741424_a_at) / Fold change /veh CMKLR1 (11741424_a_at) / RFU LOC101060620 /// MAPK8IP1 (11723275_at) / Fold change /veh LOC101060620 /// MAPK8IP1 (11723275_at) / RFU SPTSSB (11747773_x_at) / Fold change /veh SPTSSB (11747773_x_at) / RFU PRSS12 (11739890_at) / Fold change /veh PRSS12 (11739890_at) / RFU BIN1 (11741810_x_at) / Fold change /veh BIN1 (11741810_x_at) / RFU WNT11 (11732464_a_at) / Fold change /veh WNT11 (11732464_a_at) / RFU C10orf10 (11716521_a_at) / Fold change /veh C10orf10 (11716521_a_at) / RFU C5orf56 (11738089_at) / Fold change /veh C5orf56 (11738089_at) / RFU CYB561 (11721691_x_at) / Fold change /veh CYB561 (11721691_x_at) / RFU ANKRD19P (11752326_a_at) / Fold change /veh ANKRD19P (11752326_a_at) / RFU OR2T12 /// OR2T33 /// OR2T8 (11738714_s_at) / Fold change /veh OR2T12 /// OR2T33 /// OR2T8 (11738714_s_at) / RFU VCAN (11748164_a_at) / Fold change /veh VCAN (11748164_a_at) / RFU JSRP1 (11732532_at) / Fold change /veh JSRP1 (11732532_at) / RFU KRTAP10-11 (11738290_x_at) / Fold change /veh KRTAP10-11 (11738290_x_at) / RFU MYO3A (11730013_a_at) / Fold change /veh MYO3A (11730013_a_at) / RFU EBF3 (11725865_a_at) / Fold change /veh EBF3 (11725865_a_at) / RFU CAMK2N1 (11719241_x_at) / Fold change /veh CAMK2N1 (11719241_x_at) / RFU C5orf56 (11738088_a_at) / Fold change /veh C5orf56 (11738088_a_at) / RFU OLFML3 (11715873_a_at) / Fold change /veh OLFML3 (11715873_a_at) / RFU LOC100653217 /// NTM (11731650_a_at) / Fold change /veh LOC100653217 /// NTM (11731650_a_at) / RFU MAPK11 (11762145_a_at) / Fold change /veh MAPK11 (11762145_a_at) / RFU FIZ1 (11724087_x_at) / Fold change /veh FIZ1 (11724087_x_at) / RFU OASL (11726364_x_at) / Fold change /veh OASL (11726364_x_at) / RFU SOX15 (11748057_x_at) / Fold change /veh SOX15 (11748057_x_at) / RFU CD79A (11719716_a_at) / Fold change /veh CD79A (11719716_a_at) / RFU HIST1H1D (11736915_at) / Fold change /veh HIST1H1D (11736915_at) / RFU CASKIN2 (11723855_a_at) / Fold change /veh CASKIN2 (11723855_a_at) / RFU LOC730098 (11760151_x_at) / Fold change /veh LOC730098 (11760151_x_at) / RFU OR4N2 (11742367_at) / Fold change /veh OR4N2 (11742367_at) / RFU PRRT2 (11749266_a_at) / Fold change /veh PRRT2 (11749266_a_at) / RFU SNX32 (11753110_a_at) / Fold change /veh SNX32 (11753110_a_at) / RFU CDHR5 (11726645_a_at) / Fold change /veh CDHR5 (11726645_a_at) / RFU RCAN1 (11760418_a_at) / Fold change /veh RCAN1 (11760418_a_at) / RFU FAM167A (11723789_a_at) / Fold change /veh FAM167A (11723789_a_at) / RFU FAM26E (11764081_at) / Fold change /veh FAM26E (11764081_at) / RFU ISYNA1 (11749810_s_at) / Fold change /veh ISYNA1 (11749810_s_at) / RFU ACY1 (11761880_at) / Fold change /veh ACY1 (11761880_at) / RFU 11764098_at / Fold change /veh 11764098_at / RFU SAMD14 (11745864_x_at) / Fold change /veh SAMD14 (11745864_x_at) / RFU NPB (11741838_a_at) / Fold change /veh NPB (11741838_a_at) / RFU TMPRSS6 (11731388_a_at) / Fold change /veh TMPRSS6 (11731388_a_at) / RFU KRTAP10-2 (11738614_at) / Fold change /veh KRTAP10-2 (11738614_at) / RFU ARHGAP8 /// PRR5-ARHGAP8 (11727945_x_at) / Fold change /veh ARHGAP8 /// PRR5-ARHGAP8 (11727945_x_at) / RFU KRTAP5-7 /// NADSYN1 (11734609_at) / Fold change /veh KRTAP5-7 /// NADSYN1 (11734609_at) / RFU RASL12 (11751679_a_at) / Fold change /veh RASL12 (11751679_a_at) / RFU CDKN2B (11736163_a_at) / Fold change /veh CDKN2B (11736163_a_at) / RFU PRF1 (11729649_at) / Fold change /veh PRF1 (11729649_at) / RFU, ZNF638 /// ZNF638-IT1 / Fold change vs veh, ZNF638 /// ZNF638-IT1 / RFU, PANK3 / Fold change vs veh, PANK3 / RFU, SH3YL1 / Fold change vs veh, SH3YL1 / RFU, ZEB2 / Fold change vs veh, ZEB2 / RFU, NRIP1 / Fold change vs veh, NRIP1 / RFU, PTTG1IP / Fold change vs veh, PTTG1IP / RFU, CAPN2 / Fold change vs veh, CAPN2 / RFU, MED14 / Fold change vs veh, MED14 / RFU, SNORA58 / Fold change vs veh, SNORA58 / RFU, C1orf63 / Fold change vs veh, C1orf63 / RFU, LRRFIP1 / Fold change vs veh, LRRFIP1 / RFU, NDUFAF7 / Fold change vs veh, NDUFAF7 / RFU, SLC12A2 / Fold change vs veh, SLC12A2 / RFU, IBTK / Fold change vs veh, IBTK / RFU, ESF1 / Fold change vs veh, ESF1 / Fold change vs veh, TMEM50B / RFU, TAOK1 / Fold change vs veh, TAOK1 / RFU, ACBD3 / Fold change vs veh, ACBD3 / RFU, TMA16 / Fold change vs veh, TMA16 / RFU, RWDD3 / Fold change vs veh, RWDD3 / RFU, BCAT1 / Fold change vs veh, BCAT1 / RFU, EDEM3 / Fold change vs veh, EDEM3 / RFU, TMEM33 / Fold change vs veh, TMEM33 / RFU, WDR75 / Fold change vs veh, WDR75 / RFU, AHCTF1 / Fold change vs veh, AHCTF1 / RFU, TFRC / Fold change vs veh, TFRC / RFU, ZDHHC17 / Fold change vs veh, ZDHHC17 / RFU, NOM1 / Fold change vs veh, NOM1 / RFU, ARL8B / Fold change vs veh, ARL8B / RFU, ZBTB11 / Fold change vs veh, ZBTB11 / RFU, TAMM41 / Fold change vs veh, TAMM41 / RFU, KIAA1704 /// LOC100996395 / Fold change vs veh, KIAA1704 /// LOC100996395 / RFU, ING1 / Fold change vs veh, ING1 / RFU, TRMT61B / Fold change vs veh, TRMT61B / RFU, FUBP3 / Fold change vs veh, FUBP3 / RFU, TP53 / Fold change vs veh, TP53 / RFU, TNKS2 / Fold change vs veh, TNKS2 / RFU, ZFP14 / Fold change vs veh, ZFP14 / RFU, ACTR2 / Fold change vs veh, ACTR2 / RFU, PPP3R1 / Fold change vs veh, PPP3R1 / RFU, PIK3R1 / Fold change vs veh, PIK3R1 / RFU, HNRNPA1 / Fold change vs veh, HNRNPA1 / RFU, RNF170 / Fold change vs veh, RNF170 / RFU, ZNF28 / Fold change vs veh, ZNF28 / RFU, RNGTT / Fold change vs veh, RNGTT / RFU, OGT / Fold change vs veh, OGT / RFU, BRD1 / Fold change vs veh, BRD1 / RFU, MARS / Fold change vs veh, MARS / RFU, ZNF655 / Fold change vs veh, ZNF655 / RFU, FAHD1 / Fold change vs veh, FAHD1 / RFU, BDP1 / Fold change vs veh, BDP1 / RFU, LRRCC1 / Fold change vs veh, LRRCC1 / RFU, ARID1A / Fold change vs veh, ARID1A / RFU, ZNF146 / Fold change vs veh, ZNF146 / RFU, ZNF330 / Fold change vs veh, ZNF330 / RFU, GPN3 / Fold change vs veh, GPN3 / RFU, C9orf123 / Fold change vs veh, C9orf123 / RFU, N4BP2L2 / Fold change vs veh, N4BP2L2 / RFU, ARFIP1 / Fold change vs veh, ARFIP1 / RFU, FAM179B / Fold change vs veh, FAM179B / RFU, BCL10 / Fold change vs veh, BCL10 / RFU, UHRF1BP1L / Fold change vs veh, UHRF1BP1L / RFU, BET1 / Fold change vs veh, BET1 / RFU, CNOT2 / Fold change vs veh, CNOT2 / RFU, ZNF268 / Fold change vs veh, ZNF268 / Fold change vs veh, ZNF507 / RFU, DGCR2 / Fold change vs veh, DGCR2 / RFU, WDSUB1 / Fold change vs veh, WDSUB1 / Fold change vs veh, HSP90B1 /// MIR3652 / RFU, ADSS / Fold change vs veh, ADSS / RFU, GK / Fold change vs veh, GK / RFU, ZNF148 / Fold change vs veh, ZNF148 / RFU, TAF9 / Fold change vs veh, TAF9 / RFU, SLC1A5 / Fold change vs veh, SLC1A5 / RFU, SLMO2 / Fold change vs veh, SLMO2 / RFU, ABCC4 / Fold change vs veh, ABCC4 / RFU, LOC101060439 /// RAP1B / Fold change vs veh, LOC101060439 /// RAP1B / RFU, RFX7 / Fold change vs veh, RFX7 / RFU, GTPBP10 / Fold change vs veh, GTPBP10 / RFU, CNEP1R1 / Fold change vs veh, CNEP1R1 / RFU, BIVM-ERCC5 /// ERCC5 / Fold change vs veh, BIVM-ERCC5 /// ERCC5 / RFU, ILF3 / Fold change vs veh, ILF3 / RFU 11762660_at / Fold change /veh 11762660_at / RFU VCAN (11757783_s_at) / Fold change /veh VCAN (11757783_s_at) / RFU DDX43 (11728927_at) / Fold change /veh DDX43 (11728927_at) / RFU KRT8 (11758188_x_at) / Fold change /veh KRT8 (11758188_x_at) / RFU NKD1 (11759106_at) / Fold change /veh NKD1 (11759106_at) / RFU SRD5A1 (11742802_a_at) / Fold change /veh SRD5A1 (11742802_a_at) / RFU TPSAB1 /// TPSB2 (11721975_s_at) / Fold change /veh TPSAB1 /// TPSB2 (11721975_s_at) / RFU GSTM3 (11746129_a_at) / Fold change /veh GSTM3 (11746129_a_at) / RFU IL23R (11737362_x_at) / Fold change /veh IL23R (11737362_x_at) / RFU TMEM51 (11727254_a_at) / Fold change /veh TMEM51 (11727254_a_at) / RFU PIWIL2 (11732686_x_at) / Fold change /veh PIWIL2 (11732686_x_at) / RFU ORM1 (11744905_x_at) / Fold change /veh ORM1 (11744905_x_at) / RFU CCDC152 (11743942_at) / Fold change /veh CCDC152 (11743942_at) / RFU ECM1 (11717891_a_at) / Fold change /veh ECM1 (11717891_a_at) / RFU IL23R (11748794_a_at) / Fold change /veh IL23R (11748794_a_at) / RFU TNFAIP8L3 (11732012_x_at) / Fold change /veh TNFAIP8L3 (11732012_x_at) / RFU MBOAT4 (11741988_at) / Fold change /veh MBOAT4 (11741988_at) / RFU 11764193_at / Fold change /veh 11764193_at / RFU TMEM53 (11763286_at) / Fold change /veh TMEM53 (11763286_at) / RFU MAGEB2 (11727129_at) / Fold change /veh MAGEB2 (11727129_at) / RFU TMEM200A (11744735_a_at) / Fold change /veh TMEM200A (11744735_a_at) / RFU CCDC152 (11751479_a_at) / Fold change /veh CCDC152 (11751479_a_at) / RFU FAM211A (11726209_a_at) / Fold change /veh FAM211A (11726209_a_at) / RFU RGS16 (11746705_a_at) / Fold change /veh RGS16 (11746705_a_at) / RFU VCAN (11755009_s_at) / Fold change /veh VCAN (11755009_s_at) / RFU RHOB (11743442_s_at) / Fold change /veh RHOB (11743442_s_at) / RFU RGS16 (11720943_a_at) / Fold change /veh RGS16 (11720943_a_at) / RFU RGS16 (11720944_at) / Fold change /veh RGS16 (11720944_at) / RFU, VPS4B / Fold change vs veh, VPS4B / RFU, CREB1 / Fold change vs veh, CREB1 / RFU, DNAJC13 / Fold change vs veh, DNAJC13 / RFU, GNAQ / Fold change vs veh, GNAQ / RFU, CDK5R1 / Fold change vs veh, CDK5R1 / RFU, ZRANB3 / Fold change vs veh, ZRANB3 / RFU, CUL4A / Fold change vs veh, CUL4A / RFU, CCNY / Fold change vs veh, CCNY / RFU, UFL1 / Fold change vs veh, UFL1 / RFU, COG3 / Fold change vs veh, COG3 / RFU, DIAPH2 / Fold change vs veh, DIAPH2 / RFU, SKA2 / Fold change vs veh, SKA2 / RFU, AFF3 / Fold change vs veh, AFF3 / RFU, LMF1 / Fold change vs veh, LMF1 / RFU, IPO11 / Fold change vs veh, IPO11 / RFU, DFFB / Fold change vs veh, DFFB / RFU, FOXP1 / Fold change vs veh, FOXP1 / RFU, CARD8 / Fold change vs veh, CARD8 / RFU, STRN3 / Fold change vs veh, STRN3 / RFU, ADK / Fold change vs veh, ADK / RFU, RASSF2 / Fold change vs veh, RASSF2 / RFU, WIPF1 / Fold change vs veh, WIPF1 / RFU, LARP1B / Fold change vs veh, LARP1B / RFU, RASA1 / Fold change vs veh, RASA1 / RFU, RB1 / Fold change vs veh, RB1 / RFU, PPFIA1 / Fold change vs veh, PPFIA1 / RFU, MAT2A / Fold change vs veh, MAT2A / RFU, CCT5 / Fold change vs veh, CCT5 / RFU, WDR92 / Fold change vs veh, WDR92 / RFU, CUX1 / Fold change vs veh, CUX1 / RFU, TTC7A / Fold change vs veh, TTC7A / RFU, TMEM135 / Fold change vs veh, TMEM135 / RFU, DEPTOR / Fold change vs veh, DEPTOR / RFU, CPM / Fold change vs veh, CPM / RFU, DNAJB6 / Fold change vs veh, DNAJB6 / RFU, CACNA2D3 / Fold change vs veh, CACNA2D3 / RFU, DTX4 / Fold change vs veh, DTX4 / RFU, TFCP2 / Fold change vs veh, TFCP2 / RFU, GMCL1 /// GMCL1P1 / Fold change vs veh, GMCL1 /// GMCL1P1 / RFU, AEBP2 / Fold change vs veh, AEBP2 / RFU, SNHG1 /// SNORD22 /// SNORD25 /// SNORD26 /// SNORD27 /// SNORD28 /// SNORD29 /// SNORD31 / Fold change vs veh, SNHG1 /// SNORD22 /// SNORD25 /// SNORD26 /// SNORD27 /// SNORD28 /// SNORD29 /// SNORD31 / Fold change (Aza/veh), C12orf56 (ProbeSet 11735607_a_at) / Fold change (ACY-1035/veh), C12orf56 (ProbeSet 11735607_a_at) / Fold change (Aza/veh), FGFR1OP (ProbeSet 11751329_s_at) / Fold change (ACY-1035/veh), FGFR1OP (ProbeSet 11751329_s_at) / Fold change (Aza/veh), VPS36 (ProbeSet 11739960_a_at) / Fold change (ACY-1035/veh), VPS36 (ProbeSet 11739960_a_at) / RFU SYPL1 (11715823_x_at) / Fold change /veh SYPL1 (11715823_x_at) / RFU IGFBP7 (11715501_s_at) / Fold change /veh IGFBP7 (11715501_s_at) / RFU REEP3 (11722064_at) / Fold change /veh REEP3 (11722064_at) / RFU IGLL1 (11728026_x_at) / Fold change /veh IGLL1 (11728026_x_at): dose or concentration left out as unconfirmed
Details: ProbeSet 11741199_a_at; LIST B

Nc1ncn([C@@H]2O[C@H](CO)[C@@H](O)[C@H]2O)c(=O)n1 [azacitidine] was tested, and the “Fold change vs veh, LRRCC1” value was 0.97.
